One assay has as its target T1, CCKA (Cavia porcellus, UniProt Q63931).
T1 construct: The pancreatata were removed from male guinea-pigs; from tissue; host or cells: pancreas of male Dunkin Hartley guinea pigs, membranes
T1 sequence (Q63931 1-430): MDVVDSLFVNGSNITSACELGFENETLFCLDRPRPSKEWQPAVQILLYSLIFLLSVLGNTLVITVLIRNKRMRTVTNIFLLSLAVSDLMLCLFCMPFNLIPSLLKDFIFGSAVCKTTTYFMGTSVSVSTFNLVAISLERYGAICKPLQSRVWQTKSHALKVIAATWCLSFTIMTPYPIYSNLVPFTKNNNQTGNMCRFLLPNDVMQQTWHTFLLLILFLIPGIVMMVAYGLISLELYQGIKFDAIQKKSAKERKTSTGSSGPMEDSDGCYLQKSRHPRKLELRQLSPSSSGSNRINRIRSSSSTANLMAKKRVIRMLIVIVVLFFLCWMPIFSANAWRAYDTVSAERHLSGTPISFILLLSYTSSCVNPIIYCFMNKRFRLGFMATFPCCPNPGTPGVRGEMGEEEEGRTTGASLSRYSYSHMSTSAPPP
Kind of assay: CCKA binding assay, guinea pig pancreas membranes ([125I]-CCK8(S)). The following applies: [125I]-CCK8(S) 200 pM, 0.375 μM PD134,308, 150 min at 21±3° C.; for Ki: pH 7.2, read-out: pKi (Guinea pig pancreas) (converted). Summed up: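 Guinea-pig pancreatic membranes (1 mg/ml original wet weight, containing 0.375 μM PD134,308) were incubated 150 min at 21±3 °C in HEPES pH 7.2 with [125I]-CCK8(S), added at 200 pM, and competitor. Non-specific binding used L-364,718 (100 nM added). Bound tracer was filtered on GF/B and gamma-counted.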

In the next assay the target is T2, CCKB receptor (Mus musculus, UniProt P56481).
T2 construct: The cortex was dissected, weighed and homogenised in 40 ml ice-cold buffer; tissue Charles River (animals); host or cells: cerebral cortex of male CD1 mice, membranes
T2 sequence (P56481 1-453): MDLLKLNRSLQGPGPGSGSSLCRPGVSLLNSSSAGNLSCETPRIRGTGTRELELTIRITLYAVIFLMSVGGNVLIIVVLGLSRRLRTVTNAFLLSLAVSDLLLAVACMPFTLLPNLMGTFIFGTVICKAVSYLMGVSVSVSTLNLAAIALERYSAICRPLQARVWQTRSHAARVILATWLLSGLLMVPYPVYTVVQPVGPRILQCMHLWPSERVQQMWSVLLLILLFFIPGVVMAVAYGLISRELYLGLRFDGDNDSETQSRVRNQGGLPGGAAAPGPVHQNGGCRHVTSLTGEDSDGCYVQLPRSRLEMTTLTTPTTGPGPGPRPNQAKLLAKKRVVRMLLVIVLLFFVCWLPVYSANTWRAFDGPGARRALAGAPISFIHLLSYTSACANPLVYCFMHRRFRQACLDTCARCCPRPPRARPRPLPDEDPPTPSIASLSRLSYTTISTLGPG
Nature of the assay: radioligand binding assay at the CCKB receptor in mouse cortical membranes ([125I]-CCK8S). The following applies: [125I]-CCK8S 200 pM, 150 min at 21±3° C.; for Ki: pH 7.2, read-out: pKi (Mouse cortex) (converted). Summed up:
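Male CD1 mouse cortical membranes (2 mg/ml original wet weight) were incubated 150 min at 21±3 °C in HEPES buffer pH 7.2 (130 mM NaCl, 4.7 mM KCl, 5 mM MgCl2, 1 mM EDTA, bacitracin) with [125I]-CCK8S and competitor. Non-specific binding was defined with L-365,260; bound label was measured by GF/B filtration and gamma counting.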

Structures are written as SMILES.

As to `CC1CCN(C(=O)Nc2ccc(Cl)c(Cl)c2)CC(=O)N(Cc2ccccc2)c2ccccc21` (stereo not drawn) [Example 44, 1-benzyl-4-(3,4-dichlorophenyi)carbamyl-7-methyl-2-oxo-2,3,4,5,6,7-hexahydro-1H-1,4-benzodiazonine], the Ki on CCKA was 0.158 µM; at CCKB receptor, 3.16 µM.

Take `CC1CCN(C(=O)Nc2ccc3ccccc3c2)CC(=O)N(Cc2ccccc2)c2ccccc21` (stereo not drawn) [Example 45, 1-benzyl-7-methyl-4-(2-naphthyl)carbamyl-2-oxo-2,3,4,5,6,7-hexahydro-1H-1,4-benzodiazonine]: the Ki on CCKA is 0.0794 µM; on CCKB receptor, 10 µM.

Consider `O=C(OCc1ccccc1)c1cccc(NC(=O)N2CCC(=O)c3ccccc3N(Cc3ccccc3)C(=O)C2)c1` [Example 46], for which the Ki at CCKA was 3.98 µM; at CCKB receptor, 10 µM.

On to `Cc1cccc(NC(=O)N2CCC(c3ccccc3)c3ccccc3N(Cc3ccccc3)C(=O)C2)c1` (stereo not drawn) [Example 50, 1-benzyl-7-phenyl-4-(3-methylphenyl)carbamyl-2-oxo-2,3,4,5,6,7-hexahydro-1H-1,4-benzodiazonine], for which the “pKi (Guinea pig pancreas)” value at CCKA (pH 7.2) is 5.9. For the same compound, at CCKB receptor (pH 7.2), the “pKi (Mouse cortex)” value is 5.8.

Regarding `CCC1CCN(C(=O)Nc2cccc(C)c2)CC(=O)N(Cc2ccccc2)c2ccccc21` (stereo not drawn) [Example 51, 1-benzyl-7-ethyl-4-(3-methylphenyl)carbamyl-2-oxo-5,2,3,4,5,6,7-hexahydro-1H-1,4-benzodiazonine], the figures for the Ki at CCKA and at CCKB receptor were 0.794 µM and 3.16 µM, respectively.

Take `CCC1CCN(C(=O)Nc2ccc(Cl)c(Cl)c2)CC(=O)N(Cc2ccccc2)c2ccccc21` (stereo not drawn) [Example 52, 1-benzyl-7-ethyl-4-(3,4-dichlorophenyl)carbamyl-2-oxo-2,3,4,5,6,7-hexahydro-1H-1,4-benzodiazonine]: the Ki on CCKA was 0.2 µM; at CCKB receptor, 10 µM.

Consider `COc1cccc(NC(=O)N2CCCc3ccccc3N(CC(=O)OC(C)(C)C)C(=O)C2)c1` [Example 55, 1-tert-butyloxycarbonylmethyl-4-(3-methoxyphenyl)carbamyl-2-oxo-2,3,4,5,6,7-hexahydro-1H-1,4-benzodiazonine], for which the figures for the Ki on CCKA and at CCKB receptor were 1 µM and 10 µM, respectively.

As to `CC(=O)N1[C@H](CC23CC4CC(CC(C4)C2)C3)C(=O)N(Cc2ccc(F)cc2)c2ccccc2C(=O)C[C@H]1C(=O)NCC(=O)O` [Example 58, (3R,5S)-4-acetyl-3-(1-adamantyl)methyl-1-(4-fluorobenzyl)-5-carboxymethylaminocarbonyl-2,7-dioxo-2,3,4,5,6,7-hexahydro-1H-1,4-benzodiazonine], the Ki on CCKA is 7.94 µM; on CCKB receptor it was 2 µM.

`CC(=O)N1[C@H](CC23CC4CC(CC(C4)C2)C3)C(=O)N(Cc2ccccc2F)c2ccccc2C(=O)C[C@H]1C(=O)NCC(=O)O` [Example 59, (3R,5S)-4-acetyl-3-(1-adamantyl)methyl-1-(2-fluorobenzyl)-5-carboxymethyaminocarbonyl-2,7-dioxo-2,3,4,5,6,7-hexahydro-1H-1,4-benzodiazonine]: the Ki on CCKA was 10 µM; at CCKB receptor, 0.1 µM.

`CC(=O)N1[C@H](CC23CC4CC(CC(C4)C2)C3)C(=O)N(Cc2cccc(F)c2)c2ccccc2C(=O)C[C@H]1C(=O)NCC(=O)O` [Example 60, (3R,5S)-4-acetyl-3-(1-adamantyl)methyl-1-(3-fluorobenzyl)-5-carboxymethylaminocarbonyl-2,7-dioxo-2,3,4,5,6,7-hexahydro-1H-1,4-benzodiazonine]: the Ki on CCKA is 10 µM; at CCKB receptor it was 0.2 µM.

For the compound `CC(=O)N1[C@H](CC23CC4CC(CC(C4)C2)C3)C(=O)N(Cc2ccccc2Cl)c2ccccc2C(=O)C[C@H]1C(=O)NCC(=O)O` [Example 63, (3R,5S)-4-acetyl-3-(1-adamantyl)methyl-1-(2-chlorobenzyl)-5-carboxymethylaminocarbonyl-2,7-dioxo-2,3,4,5,6,7-hexahydro-1H-1,4-benzodiazonine], the values for the Ki on CCKA and at CCKB receptor were 10 µM and 0.1 µM, respectively.

Consider `CC(=O)N1[C@H](CC23CC4CC(CC(C4)C2)C3)C(=O)N(Cc2ccccc2F)c2ccccc2C(=O)C[C@H]1C(=O)N[C@@H](C)C(=O)O` [Example 64, (3R,5S)-4-acetyl-3-(1-adamantyl)methyl-1-(2-fluorobenzyl)-5-[(1S)-carboxy]ethylaminocarbonyl-2,7-dioxo-2,3,4,5,6,7-hexahydro-1H-1,4-benzodiazonine], for which the Ki was 25.1 µM at CCKA and 0.158 µM at CCKB receptor.

The values above are taken from US6057311A, “Benzodiazonine derivatives binding to cholecystokinin or gastrin receptors” (James Black Foundation Limited, priority 1996, dated 2000).
